Test results from US6555323B2, “Assay for ABCA1” (Pfizer Inc., priority 2000, dated 2003).

Legend:
ABCA1 [1] = experiment: Cellular cholesterol efflux to apo-AI from [3H]-cholesterol-labeled J774 macrophages; format: cell-based, mouse; conditions: 16 hours pretreatment, J774 cells, apo-AI 20 μg/ml acceptor
Protocol: (§1) Stock cultures of J774 mouse macrophage cell line were grown in RPMI 1640 supplemented with 10% FBS and 50 μg/ml gentamicin at 37° C. in a humidified atmosphere containing 95% air and 5% CO2.
(§2) Cells were seeded in 96 wells (96-well plate, 0.15 ml/well) using 50,000 to 100,000 cells per well and grown in RPMI 1640-10% FBS and 0.5% gentamicin at37° C. for 72 hours to achieve 80-90% confluence. Radiolabeled cholesterol ([1,2-^3H] cholesterol, New England Nuclear) was added to the cells by adding a tracer amount (1-5 μCi/well in a final concentration of 0.1% ethanol) to FBS, which was then diluted to a final concentration of 1% in RPMI. An acyl-CoA cholesterol acyltransferase (ACAT) inhibitor (decanamide, 2-(hexylthio)-N-[6-methyl-2,4-bis(methylthio)-3-pyridinyl]-,(2S)-(9Cl) at 2 μg/ml) was added to the labeling medium. […] Cells were grown in the presence of the radiolabel for two additional days to obtain confluent monolayers. For experiments where cells are enriched in free cholesterol, acetylated LDL (100 μg of protein/ml) was included in the labeling mixture. Following the labeling period, cells were extensively washed using MEM-Hepes medium supplemented with 0.5% gentamicin, and incubated with either cpt-cAMP (positive control) at 0.3 mM or test compounds (varying concentrations may be used, although […] was selected for the present experiment) for an additional 16 hours.
At the end of the pretreatment period with cpt-cAMP or test compounds, cells were extensively washed with MEM-Hepes medium containing gentamicin and incubated in RPMI 1640 medium containing the cholesterol acceptor apo-AI at a final concentration of 20 μg/ml. Parallel monolayers of control or treated cells were also incubated with acceptor-free medium to determine background, non-acceptor mediated cholesterol efflux. Cellular cholesterol efflux was quantified by measuring the release of cellular [^3H]-cholesterol into the medium as a function of time. An aliquot of the incubation medium was filtered using a 0.45 micron Millipore multiscreen plate to remove any floating cells and then counted using a Wallac Microbeta Counter (Perkin-Elmer Life Sciences, Turku, Finland).
The amount of radiolabeled cholesterol released from the cells (% efflux) is determined by the amount of radioactivity present in the incubation medium divided by the radioactivity at time zero (T0). Radtio activty at time zero is calculated as the amount of radioactivity in the cells as determined by isopropanol extraction at the end of the treatment time.

ABCA1 mRNA = ABCA1 mRNA level in treated cells; format: cell-based, mouse
Protocol: In the case where the analysis of ABCA1 expression is required, total RNA may be isolated (e.g., by the method according to Chomczynski et al., N. Anal. Biochem., 162:156 (1987)) and ABCA1 mRNA levels determined by standard techniques such as Northern blotting, slot blot hybridization, or Ribonuclease protection assays using ABCA1 specific mRNA probes.
as §1, §2

ABCA1 [2] = experiment: Cellular cholesterol efflux to apo-AI from [3H]-cholesterol-labeled J774 macrophages; format: cell-based, mouse; conditions: 1 μM, 16 hours pretreatment, J774 cells, apo-AI 20 μg/ml acceptor
[3] = molecular target: T1, acyl-CoA cholesterol acyltransferase (ACAT) (Mus musculus, UniProt Q61263); experiment: ACAT inhibition in labeling medium of J774 cells; format: cell-based; conditions: 2 μg/ml in labeling medium
T1 construct: endogenous in cells; host or cells: J774 mouse macrophage cell line
T1 sequence (Q61263 1-540): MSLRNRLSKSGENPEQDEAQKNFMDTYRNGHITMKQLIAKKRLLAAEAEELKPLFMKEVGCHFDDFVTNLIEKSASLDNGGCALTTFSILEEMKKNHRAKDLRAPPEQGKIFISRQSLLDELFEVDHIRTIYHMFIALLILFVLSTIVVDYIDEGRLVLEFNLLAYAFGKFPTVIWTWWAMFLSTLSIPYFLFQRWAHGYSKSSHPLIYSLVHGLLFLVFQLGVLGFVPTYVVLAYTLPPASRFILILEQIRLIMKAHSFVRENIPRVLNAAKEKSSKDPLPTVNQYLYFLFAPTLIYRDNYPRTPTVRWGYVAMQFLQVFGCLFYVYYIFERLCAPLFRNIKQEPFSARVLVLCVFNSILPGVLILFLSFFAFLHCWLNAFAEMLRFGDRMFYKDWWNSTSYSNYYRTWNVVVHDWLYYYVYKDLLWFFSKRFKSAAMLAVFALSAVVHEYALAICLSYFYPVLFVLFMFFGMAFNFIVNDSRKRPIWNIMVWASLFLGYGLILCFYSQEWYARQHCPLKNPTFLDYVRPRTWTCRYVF
Protocol: as §2

## COc1ccc(-c2cn3c(C)nnc3c(N3CCC4(CC3)C(=O)NCN4c3ccccc3)n2)cc1
ABCA1 [1]; 5 μM
  % of control (cholesterol efflux): 101 % of control

## CN(c1ccc(C(O)(C(F)(F)F)C(F)(F)F)cc1)S(=O)(=O)c1ccccc1[N+](=O)[O-]
ABCA1 mRNA; 5 μM
  % of control mRNA: 160 % of control
ABCA1 [1]; 5 μM
  % of control (cholesterol efflux): 185 % of control

## O=S(=O)(c1ccccc1)N(CC(F)(F)F)c1ccc(C(O)(C(F)(F)F)C(F)(F)F)cc1
ABCA1 mRNA; 5 μM
  % of control mRNA: 680 % of control
ABCA1 [1]; 5 μM
  % of control (cholesterol efflux): 177 % of control

## Cc1nnc2c(N3CCC4(CC3)C(=O)NCN4c3ccccc3)nc(-c3ccc(O)cc3)cn12
ABCA1 [1]; 5 μM
  % of control (cholesterol efflux): 106 % of control

## COc1ccc(-c2cn3c(C)nnc3c(N3CCC(C)(N(C)c4cccc(F)c4)CC3)n2)cc1
ABCA1 [1]; 5 μM
  % of control (cholesterol efflux): 94 % of control

## COc1ccc(-c2cn3c(C)nnc3c(N3CCC4(CC3)C(=O)NCN4c3ccccc3)n2)cc1OC
ABCA1 [1]; 5 μM
  % of control (cholesterol efflux): 111 % of control

## Cc1nnc2c(N3CCC4(CC3)C(=O)NCN4c3ccccc3)nc(-c3ccc4c(c3)OCO4)cn12
ABCA1 [1]; 5 μM
  % of control (cholesterol efflux): 82 % of control

## COc1cc(-c2cn3c(C)nnc3c(N3CCC4(CC3)C(=O)NCN4c3ccccc3)n2)cc(OC)c1OC
ABCA1 [1]; 5 μM
  % of control (cholesterol efflux): 95 % of control

## Cc1nnc2n1-c1sccc1C(c1ccccc1)=NC2
ABCA1 [1]; 5 μM
  % of control (cholesterol efflux): 102 % of control

## Cc1nnc2c(N3CCC4(CC3)C(=O)NCN4c3ccccc3)nc(-c3ccccc3)cn12
ABCA1 [1]; 5 μM
  % of control (cholesterol efflux): 109 % of control

## CCCCC[C@H](O)/C=C/[C@H]1[C@H](O)CC(=O)[C@@H]1CCCCCCC(=O)O [Prostaglandin E1, reference compound]
ABCA1 mRNA; 1 μM
  % of control mRNA: 1420 % of control
ABCA1 [2]
  % of control (cholesterol efflux): 210 % of control

## Nc1ncnc2c1nc(Sc1ccc(Cl)cc1)n2[C@@H]1O[C@@H]2COP(=O)(O)O[C@H]2[C@H]1O [cpt-cAMP, reference compound]
ABCA1 mRNA; 0.3 mM
  % of control mRNA: 1600 % of control
ABCA1 [1]; 0.3 mM
  % of control (cholesterol efflux): 425 % of control

## CCCCCCCC[C@H](SCCCCCC)C(=O)Nc1c(SC)cc(C)nc1SC [decanamide, 2-(hexylthio)-N-[6-methyl-2,4-bis(methylthio)-3-pyridinyl]-,(2S)-(9Cl)]
[3]
  ACAT activity: completely inhibited
